Structures are written as SMILES. Where only a bound is given, the exact number is not on record here.

Results on 15 compounds are retold here after US20230399287A1, “NOVEL COMPOUNDS” (Sitryx Therapeutics Limited, priority 2020, published 2023).

One data set concerns NRF2. Nature of the data set: NRF2 +/- GSH activation assay (DiscoverX PathHunter NRF2 translocation kit). Type of data set: cell-based. The note with it: for Emax: normalised to dimethyl fumarate high control; for EC50: Homo sapiens, U2OS, U2OS PathHunter cells.
A short description of data set [1]: Hepatocyte stability assay (human). Type of data set: in vitro ADME. The note with it: human, cryopreserved hepatocytes, 10 μM compound, 60 min, read-out: T½. An outline of the steps:
(§1)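 Cryopreserved human or mouse hepatocytes (0.5×10^6 cells/mL in Leibovitz buffer) were incubated with 10 μM compound (0.1% DMSO) at 37° C in duplicate, alongside a buffer-only control. Samples taken from 0 to 60 min were analysed by LC-MS/MS. Half-life and Clint (μL min^−1 10^−6 cells) came from the ln % remaining versus time slope.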

In data set [2] the test system is hepatocytes. As to the kind of experiment: Hepatocyte stability assay (human). Type of data set: in vitro ADME. The note with it: 10 μM compound, 60 min. An outline of the steps: as §1
The subject of another data set is IL-6. As to the kind of experiment: THP-1 AlphaLISA IL-6 cytokine assay. Type of data set: cell-based. As to conditions: Homo sapiens, THP-1, differentiated THP-1 cells, LPS 24 hr then Nigericin 1 hour. An outline of the steps:
(§2)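 THP-1 cells differentiated with PMA for 72 h, pre-incubated with compound for 30 min, primed with LPS for 24 h, then given nigericin for 1 h at 37 °C. IL-1β and IL-6 in supernatants were read by AlphaLISA. % inhibition was set against ±LPS controls and IC50 taken from concentration–response curves.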

The next data set concerns IL-1β. Nature of the data set: THP-1 AlphaLISA IL-1β cytokine assay. Type of data set: cell-based. The note with it: Homo sapiens, THP-1, differentiated THP-1 cells, LPS 24 hr then Nigericin 1 hour. An outline of the steps:
as §2

Data set [3] can be described thus: Hepatocyte stability assay (mouse). Type of data set: in vitro ADME. The note with it: mouse, cryopreserved hepatocytes, 10 μM compound, 60 min, read-out: T½. The gist of the method: as §1
Data set [4] relates to hepatocytes. As to the kind of experiment: Hepatocyte stability assay (mouse). Type of data set: in vitro ADME. The note with it: 10 μM compound, 60 min. An outline of the steps: as §1

For the compound `C=C(CC(=O)OC1(c2ccc(C(F)(F)F)cc2)CCCC1)C(=O)O` [Example 7, 2-methylene-4-oxo-4-((1-(4-(trifluoromethyl)phenyl)cyclopentyl)oxy)butanoic acid], the Emax in the data set with NRF2 (+GSH) turned out to be 0%; with NRF2 (−GSH) it was 6%. For the same compound, the 50% effective concentration (EC50) with NRF2 (+GSH) and in the data set on NRF2 (−GSH) was > 100 µM in each case. For the same compound, the half-life at 10 μM was determined as 1.1 h in data set [1] and 1.97 h in data set [3]. Also, the Clint stood at 20 μL min^−1 10^−6 cells with hepatocytes [2] and 14 μL min^−1 10^−6 cells in the data set on hepatocytes [4]. In addition, the IC50 with IL-6 was > 100 µM; with IL-1β, 3.7 µM.
As to `C=C(CC(=O)OC1(c2ccc(C(F)(F)F)cc2)CC1)C(=O)O` [Example 11, 2-methylene-4-oxo-4-(1-(4-(trifluoromethyl)phenyl)cyclopropoxy)butanoic acid], the values for the Emax in the data set on NRF2 (+GSH) and with NRF2 (−GSH) were 0% and 11%, respectively. For the same compound, the 50% effective concentration (EC50) in the data set with NRF2 (+GSH) and in the data set on NRF2 (−GSH) was > 100 µM throughout. The figures for the half-life at 10 μM in data set [1] and in data set [3] were 3.62 h and 1.18 h, respectively. The Clint is 6 μL min^−1 10^−6 cells in the data set with hepatocytes [2] and 24 μL min^−1 10^−6 cells in the data set with hepatocytes [4]. In addition, the IC50 with IL-6 is > 100 µM; in the data set with IL-1β, 1.4 µM.
Take `C=C(CC(=O)OC1(c2ccc(-c3ccc(C(F)(F)F)cc3)cc2)CCC1)C(=O)O` [Example 26, 2-methylene-4-oxo-4-(1-(4′-(trifluoromethyl)-[1,1′-biphenyl]-4-yl)cyclobutoxy)butanoic acid]: the values for the Emax in the data set with NRF2 (+GSH) and in the data set on NRF2 (−GSH) were 34% and 88%, respectively. The EC50 was > 100 µM in the data set with NRF2 (+GSH) and 24.1 µM in the data set on NRF2 (−GSH). Moreover, the half-life at 10 μM in data set [1] is 0.1 h; in data set [3], < 0.05 h. Besides, the figures for the Clint in the data set on hepatocytes [2] and with hepatocytes [4] were 238 μL min^−1 10^−6 cells and >460 μL min^−1 10^−6 cells, respectively. Moreover, the results for the IC50 in the data set on IL-6 and in the data set on IL-1β were 3.7 µM and 42 µM, respectively.
Turning to `C=C(CC(=O)OC1(c2ccc(C(F)(F)F)nn2)CCC1)C(=O)O` [Example 62, 2-methylene-4-oxo-4-(1-(6-(trifluoromethyl)pyridazin-3-yl)cyclobutoxy)butanoic acid], the values for the maximal effect (Emax) in the data set with NRF2 (+GSH) and in the data set with NRF2 (−GSH) were 4% and 1%, respectively. In addition, the concentration for a half-maximal effect (EC50) with NRF2 (+GSH) and in the data set on NRF2 (−GSH) was > 100 µM each time. The half-life at 10 μM in data set [1] was > 7.67 h; in data set [3], 7.23 h. Besides, the figures for the Clint in the data set with hepatocytes [2] and in the data set on hepatocytes [4] were <3 μL min^−1 10^−6 cells and 4 μL min^−1 10^−6 cells, respectively. The results for the IC50 with IL-6 and in the data set on IL-1β were > 31.6 µM and 5 µM, respectively.
For the compound `C=C(CC(=O)OC1(c2ccc(Cl)cc2)CCC1)C(=O)O` [Example 8, 4-(1-(4-chlorophenyl)cyclobutoxy)-2-methylene-4-oxobutanoic acid], the maximum response (Emax) in the data set with NRF2 (+GSH) is 0%; in the data set on NRF2 (−GSH), 24%. Also, the 50% effective concentration (EC50) in the data set with NRF2 (+GSH) and in the data set on NRF2 (−GSH) was > 100 µM in each case. Further, the half-life at 10 μM in data set [1] came out at 2.07 h; in data set [3] it was 1.08 h. In addition, the Clint in the data set on hepatocytes [2] was determined as 11 μL min^−1 10^−6 cells; in the data set with hepatocytes [4], 26 μL min^−1 10^−6 cells. In addition, the IC50 was found to be 64.5 µM in the data set on IL-6 and 2.6 µM in the data set on IL-1β.
Take `C=C(CC(=O)OC1(c2ccc(SC(F)(F)F)cc2)CCC1)C(=O)O` [Example 9, 2-methylene-4-oxo-4-(1-(4-((trifluoromethyl)thio)phenyl)cyclobutoxy)butanoic acid]: the Emax was determined as 6% in the data set on NRF2 (+GSH) and 14% in the data set on NRF2 (−GSH). Moreover, the EC50 in the data set on NRF2 (+GSH) and with NRF2 (−GSH) was > 100 µM each time. The half-life at 10 μM in data set [1] turned out to be 1.52 h; in data set [3], 0.633 h. In addition, the Clint was 15 μL min^−1 10^−6 cells in the data set with hepatocytes [2] and 44 μL min^−1 10^−6 cells with hepatocytes [4]. The figures for the IC50 in the data set with IL-6 and in the data set on IL-1β were > 100 µM and 2.8 µM, respectively.
In the case of `C=C(CC(=O)OC(C)(C)c1ccc(C(F)(F)F)cc1)C(=O)O` [Example 2, 2-methylene-4-oxo-4-((2-(4-(trifluoromethyl)phenyl)propan-2-yl)oxy)butanoic acid], the maximal effect (Emax) in the data set on NRF2 (+GSH) and in the data set on NRF2 (−GSH) was 0% each time. Further, the EC50 in the data set with NRF2 (+GSH) and with NRF2 (−GSH) was > 100 µM throughout. The half-life at 10 μM came to 2.83 h in data set [1] and 0.583 h in data set [3]. Also, the Clint is recorded as 8 μL min^−1 10^−6 cells in the data set on hepatocytes [2] and 35 μL min^−1 10^−6 cells with hepatocytes [4]. Further, the results for the IC50 in the data set on IL-6 and with IL-1β were > 63.1 µM and 0.8 µM, respectively.
Regarding `C=C(CC(=O)OC1(c2ccc(C(F)(F)F)c(Cl)c2)CCC1)C(=O)O` [Example 12, 4-(1-(3-chloro-4-(trifluoromethyl)phenyl)cyclobutoxy)-2-methylene-4-oxobutanoic acid], the maximum response (Emax) with NRF2 (+GSH) stood at 46%; with NRF2 (−GSH) it was 66%. In addition, the concentration for a half-maximal effect (EC50) in the data set on NRF2 (+GSH) is > 100 µM; in the data set with NRF2 (−GSH), 81.6 µM. Also, the figures for the half-life at 10 μM in data set [1] and in data set [3] were 0.617 h and 0.75 h, respectively. Besides, the Clint in the data set with hepatocytes [2] is reported as 46 μL min^−1 10^−6 cells; with hepatocytes [4], 42 μL min^−1 10^−6 cells. Further, the values for the IC50 in the data set with IL-6 and in the data set with IL-1β were 82.6 µM and 4.5 µM, respectively.
For `C=C(CC(=O)OCc1ccc(C(F)(F)F)cc1)C(=O)O` [Example 13, 2-methylene-4-oxo-4-((4-(trifluoromethyl)benzyl)oxy)butanoic acid], the results for the maximal effect (Emax) in the data set on NRF2 (+GSH) and in the data set on NRF2 (−GSH) were 25% and 54%, respectively. In addition, the results for the EC50 with NRF2 (+GSH) and in the data set on NRF2 (−GSH) were > 100 µM and 38.7 µM, respectively. Also, the results for the half-life at 10 μM in data set [1] and in data set [3] were > 7.67 h and 0.617 h, respectively. The Clint was <3 μL min^−1 10^−6 cells in the data set with hepatocytes [2] and 42 μL min^−1 10^−6 cells with hepatocytes [4]. In addition, the figures for the 50% inhibitory concentration (IC50) with IL-6 and in the data set with IL-1β were > 100 µM and 5.9 µM, respectively.
As to `C=C(CC(=O)OC1(c2ccc(Cl)cn2)CCC1)C(=O)O` [Example 51, 4-(1-(5-chloropyridin-2-yl)cyclobutoxy)-2-methylene-4-oxobutanoic acid], the half-life at 10 μM in data set [1] and in data set [3] was > 7.67 h each time. In addition, the Clint in the data set with hepatocytes [2] and in the data set on hepatocytes [4] was <3 μL min^−1 10^−6 cells each time. Besides, the IC50 is > 31.6 µM with IL-6 and 6.4 µM in the data set with IL-1β.
As to `C=C(CC(=O)OC1(c2ncc(C(F)(F)F)cn2)CCC1)C(=O)O` [Example 52, 2-methylene-4-oxo-4-(1-(5-(trifluoromethyl)pyrimidin-2-yl)cyclobutoxy)butanoic acid], the results for the half-life at 10 μM in data set [1] and in data set [3] were > 7.67 h and 5.12 h, respectively. In addition, the figures for the Clint with hepatocytes [2] and in the data set on hepatocytes [4] were <3 μL min^−1 10^−6 cells and 5 μL min^−1 10^−6 cells, respectively. The 50% inhibitory concentration (IC50) with IL-6 was > 100 µM; in the data set on IL-1β, 11.7 µM.
Turning to `C=C(CC(=O)OC(C)(C)c1ccc(C(F)(F)F)cn1)C(=O)O` [Example 57, 2-methylene-4-oxo-4-((2-(5-(trifluoromethyl)pyridin-2-yl)propan-2-yl)oxy)butanoic acid], the values for the half-life at 10 μM in data set [1] and in data set [3] were > 7.67 h and 2.52 h, respectively. Moreover, the Clint with hepatocytes [2] is reported as <3 μL min^−1 10^−6 cells; in the data set on hepatocytes [4], 10 μL min^−1 10^−6 cells. Besides, the half-maximal inhibitory concentration (IC50) is > 31.6 µM in the data set on IL-6 and 6.6 µM in the data set with IL-1β.
With `C=C(CC(=O)OC1(c2ccc(C(F)(F)F)cc2)CC(F)(F)C1)C(=O)O` [Example 29, 4-(3,3-difluoro-1-(4-(trifluoromethyl)phenyl)cyclobutoxy)-2-methylene-4-oxobutanoic acid], the half-life at 10 μM in data set [1] came out at 2.38 h; in data set [3], 1.32 h. For the same compound, the results for the Clint in the data set with hepatocytes [2] and with hepatocytes [4] were 11 μL min^−1 10^−6 cells and 20 μL min^−1 10^−6 cells, respectively. Further, the IC50 is > 100 µM with IL-6 and 1.3 µM in the data set with IL-1β.
For the compound `C=C(CC(=O)OC1(c2ccc(C(F)(F)F)cc2)CC(C)C1)C(=O)O` (single isomer, unassigned) [Example 44, 4-(3-methyl-1-(4-(trifluoromethyl)phenyl)cyclobutoxy)-2-methylene-4-oxobutanoic acid], the half-life at 10 μM in data set [1] was > 7.67 h; in data set [3] it was 2.33 h. Moreover, the Clint is <3 μL min^−1 10^−6 cells in the data set with hepatocytes [2] and 9 μL min^−1 10^−6 cells in the data set on hepatocytes [4]. Further, the half-inhibitory concentration (IC50) in the data set with IL-6 is > 100 µM; in the data set on IL-1β it was 5.1 µM.
As for `C=C(C(=O)O)C(C)(C)C(=O)OC1(c2ccc(C(F)(F)F)cc2)CCC1` [Example 30, 3,3-dimethyl-2-methylene-4-oxo-4-(1-(4-(trifluoromethyl)phenyl)cyclobutoxy) butanoic acid], the figures for the half-life at 10 μM in data set [1] and in data set [3] were 0.617 h and 0.25 h, respectively. Further, the Clint worked out at 41 μL min^−1 10^−6 cells with hepatocytes [2] and 104 μL min^−1 10^−6 cells with hepatocytes [4]. Besides, the half-maximal inhibitory concentration (IC50) with IL-6 was > 100 µM; with IL-1β it was 1.2 µM.
